Data reported in US20250333406A1, “SULFONYL CYCLIC DERIVATIVES, AND COMPOSITIONS AND METHODS THEREOF” (Lysoway Therapeutics, Inc., priority 2023, published 2025).

System: TFEB
Test: TFEB Nuclear Translocation Assay
Type: cell-based
Conditions: read-out: EC50 of TFEB activation

Row | Compound | EC50 [µM]
1 | CC(C)(C)S(=O)(=O)n1ccc(S(=O)(=O)n2nc(N3CCN(c4ncc(F)cn4)CC34CC4)c3c(Cl)cc(F)cc32)c1 [Compound 171, 1-((1-(tert-butylsulfonyl)-1H-pyrrol-3-yl)sulfonyl)-4-chloro-6-fluoro-3-(7-(5-fluoropyrimidin-2-yl)-4,7-diazaspiro [2.5]octan-4-yl)-1H-indazole] | ≤ 1
2 | CC(C)(C)S(=O)(=O)n1ccc(S(=O)(=O)n2nc(N3CCN(c4ncc(F)cn4)CC34CC4)c3c(F)cc(F)cc32)c1 [Compound 172, 1-((1-(tert-butylsulfonyl)-1H-pyrrol-3-yl)sulfonyl)-4,6-difluoro-3-(7-(5-fluoropyrimidin-2-yl)-4,7-diazaspiro [2.5]octan-4-yl)-1H-indazole] | ≤ 1
3 | CC(C)S(=O)(=O)n1ccc(S(=O)(=O)n2nc(N3CCN(c4ccc(F)cc4)CC34CC4)c3c(Cl)cc(F)cc32)c1 [Compound 175, 4-chloro-6-fluoro-3-(7-(4-fluorophenyl)-4,7-diazaspiro [2.5]octan-4-yl)-1-((1-(isopropylsulfonyl)-1H-pyrrol-3-yl)sulfonyl)-1H-indazole] | ≤ 1
4 | CC(C)S(=O)(=O)n1ccc(S(=O)(=O)n2nc(N3CCN(c4ncc(F)cn4)CC34CCC4)c3c(Cl)cc(F)cc32)c1 [Compound 179, 4-chloro-6-fluoro-3-(8-(5-fluoropyrimidin-2-yl)-5,8-diazaspiro [3.5]nonan-5-yl)-1-((1-(isopropylsulfonyl)-1H-pyrrol-3-yl)sulfonyl)-1H-indazole] | ≤ 1
5 | [2H]c1c(S(=O)(=O)n2nc(N3CCN(c4ncc(F)cn4)CC34CC4)c3c(Cl)cc(F)cc32)c([2H])n(S(=O)(=O)C(C)C)c1[2H] [Compound 180, 4-chloro-6-fluoro-3-[7-(5-fluoropyrimidin-2-yl)-4,7-diazaspiro [2.5]octan-4-yl]-1-(2,4,5-trideuterio-1-isopropylsulfonyl-pyrrol-3-yl) sulfonyl-indazole] | ≤ 1
6 | [2H]c1c(S(=O)(=O)n2nc(N3CCN(c4ncc(F)cn4)CC34CC4)c3c(Cl)cc(F)cc32)c([2H])n(S(=O)(=O)C(C)(C)Cl)c1[2H] [Compound 181, 4-chloro-1-[1-(1-chloro-1-methyl-ethyl)sulfonyl-2,4,5-trideuterio-pyrrol-3-yl]sulfonyl-6-fluoro-3-[7-(5-fluoropyrimidin-2-yl)-4,7-diazaspiro[2.5]octan-4-yl]indazole] | ≤ 1
7 | CC(C)S(=O)(=O)n1ccc(S(=O)(=O)n2nc(N3CCN(S(C)(=O)=O)CC34CC4)c3c(Cl)cc(F)cc32)c1 [Compound 183, 4-chloro-6-fluoro-1-((1-(isopropylsulfonyl)-1H-pyrrol-3-yl)sulfonyl)-3-(7-(methylsulfonyl)-4,7-diazaspiro [2.5]octan-4-yl)-1H-indazole] | 1 to 10
8 | CC(C)S(=O)(=O)n1ccc(S(=O)(=O)n2nc(N3CCC(N(C)C)CC34CC4)c3c(Cl)cc(F)cc32)c1 (centres unmarked) [Compound 186, 4-[4-chloro-6-fluoro-1-(1-isopropylsulfonylpyrrol-3-yl)sulfonyl-indazol-3-yl]-N, N-dimethyl-4-azaspiro [2.5]octan-7-amine] | 1 to 10
9 | CC(C)S(=O)(=O)n1ccc(S(=O)(=O)n2nc(N3CCCC34CC4)c3c(Cl)cc(F)cc32)c1 [Compound 188, 3-(4-azaspiro [2.4]heptan-4-yl)-4-chloro-6-fluoro-1-(1-isopropylsulfonylpyrrol-3-yl) sulfonyl-indazole] | ≤ 1
10 | CC(C)S(=O)(=O)n1ccc(S(=O)(=O)n2nc(N3CCOCC34CC4)c3c(Cl)cc(F)cc32)c1 [Compound 190, 4-[4-chloro-6-fluoro-1-(1-isopropylsulfonylpyrrol-3-yl)sulfonyl-indazol-3-yl]-7-oxa-4-azaspiro [2.5]octane] | ≤ 1

Second part, the compound after the results:

Row | EC50 [µM] | Compound
11 | ≤ 1 | O=S(=O)(c1ccn(S(=O)(=O)C2CC2)c1)n1nc(N2CCN(c3ncc(F)cn3)CC23CC3)c2c(Cl)cc(F)cc21 [Compound 173, 4-chloro-1-((1-(cyclopropylsulfonyl)-1H-pyrrol-3-yl)sulfonyl)-6-fluoro-3-(7-(5-fluoropyrimidin-2-yl)-4,7-diazaspiro [2.5]octan-4-yl)-1H-indazole]
12 | ≤ 1 | O=S(=O)(c1ccn(S(=O)(=O)C2CC2)c1)n1nc(N2CCN(c3ncc(F)cn3)CC23CC3)c2c(F)cc(F)cc21 [Compound 174, 1-((1-(cyclopropylsulfonyl)-1H-pyrrol-3-yl)sulfonyl)-4,6-difluoro-3-(7-(5-fluoropyrimidin-2-yl)-4,7-diazaspiro [2.5]octan-4-yl)-1H-indazole]
13 | ≥ 10 | CC(C)S(=O)(=O)n1ccc(S(=O)(=O)n2nc(N3CCN(c4ccncc4)CC34CC4)c3c(Cl)cc(F)cc32)c1 [Compound 176, 4-chloro-6-fluoro-1-(1-isopropylsulfonylpyrrol-3-yl) sulfonyl-3-[7-(4-pyridyl)-4,7-diazaspiro [2.5]octan-4-yl]indazole]
14 | ≤ 1 | CC(C)S(=O)(=O)n1ccc(S(=O)(=O)n2nc(N3CCN(c4ncc(F)cn4)C[C@@H]3C)c3c(Cl)cc(F)cc32)c1 [Compound 177, 4-chloro-6-fluoro-3-[(2S)-4-(5-fluoropyrimidin-2-yl)-2-methyl-piperazin-1-yl]-1-(1-isopropylsulfonylpyrrol-3-yl) sulfonyl-indazole]
15 | ≤ 1 | CC(C)S(=O)(=O)n1ccc(S(=O)(=O)n2nc(N3CCN(c4ncc(F)cn4)C[C@H]3C)c3c(Cl)cc(F)cc32)c1 [Compound 178, 4-chloro-6-fluoro-3-[(2R)-4-(5-fluoropyrimidin-2-yl)-2-methyl-piperazin-1-yl]-1-(1-isopropylsulfonylpyrrol-3-yl) sulfonyl-indazole]
16 | ≤ 1 | CC(C)S(=O)(=O)n1ccc(S(=O)(=O)n2nc(N3CCN(c4c(F)cccc4F)CC34CC4)c3c(Cl)cc(F)cc32)c1 [Compound 182, 4-chloro-3-(7-(2,6-difluorophenyl)-4,7-diazaspiro [2.5]octan-4-yl)-6-fluoro-1-((1-(isopropylsulfonyl)-1H-pyrrol-3-yl)sulfonyl)-1H-indazole]
17 | ≤ 1 | CC(C)S(=O)(=O)n1ccc(S(=O)(=O)n2nc(N3CCCC3C(F)(F)F)c3c(Cl)cc(F)cc32)c1 (centres unmarked) [Compound 184, 4-chloro-6-fluoro-1-(1-isopropylsulfonylpyrrol-3-yl)sulfonyl-3-[2-(trifluoromethyl)pyrrolidin-1-yl]indazole]
18 | ≤ 1 | CC(C)S(=O)(=O)n1ccc(S(=O)(=O)n2nc(N3CCN(c4ncc(F)cn4)CC3(C)C)c3c(Cl)cc(F)cc32)c1 [Compound 185, 4-chloro-6-fluoro-3-[4-(5-fluoropyrimidin-2-yl)-2,2-dimethyl-piperazin-1-yl]-1-(1-isopropylsulfonylpyrrol-3-yl) sulfonyl-indazole]
19 | ≤ 1 | CC(C)S(=O)(=O)n1ccc(S(=O)(=O)n2nc(N3CCC(=O)CC34CC4)c3c(Cl)cc(F)cc32)c1 [Compound 187, 4-[4-chloro-6-fluoro-1-(1-isopropylsulfonylpyrrol-3-yl)sulfonyl-indazol-3-yl]-4-azaspiro [2.5]octan-7-one]
20 | ≤ 1 | CC(C)S(=O)(=O)n1ccc(S(=O)(=O)n2nc(N3CCC34CCC4)c3c(Cl)cc(F)cc32)c1 [Compound 189, 3-(1-azaspiro [3.3]heptan-1-yl)-4-chloro-6-fluoro-1-(1-isopropylsulfonylpyrrol-3-yl) sulfonyl-indazole]
